Laboratory results: patent publication US6395913B1, “Recovery and purification of 3,4-epoxy-1-butene” (Eastman Chemical Company, priority 2001, dated 2002)

How the values were obtained:
Type in all cases: physicochemical
[1] = Extraction affinity of water-immiscible solvents: distribution coefficients against a standard water/3-buten-1,2-diol/epoxybutene solution; conditions: room temperature; for Distribution Coefficients Epoxy-Butene: 1 part solvent : 1 part standard solution (35% water/65% diol with approx. 10 wt% epoxybutene), GC analysis, ONE PHASE = no phase separation; for Distribution Coefficients Solvent / Distribution Coefficients Water / Distribution Coefficients Diol: 1 part solvent : 1 part standard water-diol-epoxybutene solution; for Distribution Coefficients Diol: diol = 3-buten-1,2-diol
Method: This example compares the extraction affinity of various water-immiscible solvents for epoxybutene in the presence of aqueous absorbent mixtures, as occurs in the extraction zone of both embodiments of this invention. A standard mixture of 35% water and 65% 3-buten-1,2-diol (diol) was prepared. […] For each candidate extractant solvent specified in Table 1, one part by weight water-immiscible solvent was added to one part standard water-diol-epoxybutene solution in a separatory funnel. The mixture was vigorously shaken, allowed to settle, then separated into two liquid phases at room temperature. The aqueous and organic layers from the decantation were analyzed by gas chromatography to determine the composition of each layer. From these compositions, distribution coefficients were calculated for epoxybutene, water, diol, and the candidate extractant as follows: [formula]

[2] = Rate of epoxybutene hydrolysis as a function of pH
Text: Epoxybutene reacts readily with nucleophiles such as water and alcohols to form 3-butene-1,2-diol and glycol ethers, respectively. However, the relative rate of epoxybutene reaction with nucleophiles is a function of pH. Epoxybutene, like other epoxides, undergoes both acid and base catalysis. Acid catalysis has the larger influence on the rate of reaction. For example, the rate of epoxybutene hydrolysis is over 500 times greater at pH 3 than at pH 7. At pH 11, the rate is over 17 times greater than at pH 7. Since it is desirable to minimize epoxybutene losses due to reaction with nucleophiles, EpB reactivity can be reduced by maintaining the epoxybutene-laden solution at or near a pH of about 7 to 8. This can be done by adding a basic compound to the recovery system. Generally the process gas from the reactor contains ppm levels of formic acid and other organic acids. Thus, any basic material which is capable of neutralizing organic acids may be used in the present process. […]

[3] = Epoxybutene loss by reaction (hydrolysis) during continuous distillation; conditions: for epoxybutene present in the feed reacted to form 1,2-diol and higher diol oligomers: about 1 bar
Method: The distillation was conducted in a silvered, vacuum-jacketed glass Oldershaw column, equipped with a liquid-dividing distillation head, feed tray, reflux magnet, reflux timer, cooling water condenser, jacketed reboiler, pressure gage, and nitrogen purge line. The column was configured with a 15-plate stripping section, a 10-plate rectifying section, and a 500 ml jacketed flask heated by a thermostatted circulating oil bath. Feed to the column was supplied from a 5-liter jacketed vessel via a piston pump and bottoms take-off was removed via a second piston pump. The bottoms product was cooled in a small water-chilled stainless steel heat exchanger placed in line on the suction side of the pump. The distillate product flowed by gravity to a jacketed cooled receiver, which also functioned as a phase decanter. Thermocouples were provided at the reboiler, and distillation head. The continuous run lasted about 12 hours in duration with a total feed of about 1192 grams. A reflux ratio of 1:1 was employed. The column was operated at about 1 bar absolute pressure. During steady state operation the average distillate composition comprised about 16% water, 84% epoxybutene, and less than 0.01% 1,2-diol. The distillate separated into two liquid phases upon settling. The average bottoms product comprised 59.2% water, less than 0.2% epoxybutene, and 39.9% 1,2-diol. Approximately 66% of the epoxybutene present in the feed reacted to form 1,2-diol and higher diol oligomers and 93% of the unreacted epoxybutene was recovered in the distillate.
The distillation was conducted in a silvered, vacuum-jacketed glass Oldershaw column, equipped with a liquid-dividing distillation head, feed tray, reflux magnet, reflux timer, cooling water condenser, jacketed reboiler, pressure gage, and nitrogen purge line. The column was configured with a 15-plate stripping section, a 10-plate rectifying section, and a 500 ml jacketed flask heated by a thermostatted circulating oil bath. Feed to the column was supplied from a 5-liter jacketed vessel via a piston pump and bottoms take-off was removed via a second piston pump. The product removed from the base of the column was cooled in a small water-chilled stainless steel heat exchanger placed in line on the suction side of the pump. The distillate product flowed by gravity to a jacketed cooled receiver, which also functioned as a phase decanter. Thermocouples were provided at the reboiler, and distillation head. The continuous run lasted about 10 hours in duration with a total feed of about 3028 grams. A reflux ratio of 3:1 was employed. The column was operated at about 1 bar absolute pressure. During steady state operation the average distillate composition comprised about 20.4% water, 79.4% epoxybutene, and less than 0.2% 1,2-diol. […]

Structure (SMILES)	Distribution Coefficients Epoxy-Butene [1]	Distribution Coefficients Solvent [1]	Distribution Coefficients Water [1]	Distribution Coefficients Diol [1]	also measured
c1ccc2c(c1)CCCC2 [1,2,3,4-Tetrahydronaphthalene]	1.91	51.8	0.010	0.021	
Clc1ccccc1Cl [1,2-Dichlorobenzene]	3.91	54.4	0.002	0.007	
CC(C)c1cccc(C(C)C)c1 [1,3-Diisopropylbenzene]	1.92	329	0.001	0.004	
Cc1cccc2ccccc12 [1-Methylnaphthalene]	3.10	101	0.002	0.006	
CC(C)C(=O)OCC(C)(C)C(OC(=O)C(C)C)C(C)C (stereo not drawn) [2,2,4-Trimethyl-1,3-Pentanediol Diisobutyrate]	2.19	124	0.012	0.027	
CCCCC(CC)CO (stereo not drawn) [2-Ethylhexanol]	ONE PHASE				
COCC(C)OC(C)=O (stereo not drawn) [2-Methoxy-1-Methylethyl Acetate]	ONE PHASE				
CCCC(C)=O [2-Pentanone]	ONE PHASE				
CCCCOC(=O)CC [Butyl Propionate]	3.96	14.1	0.042	0.115	
ClC(Cl)Cl [Chloroform]	8.73	8.33	0.024	0.106	
O=C1CCCCC1 [Cyclohexanone]	ONE PHASE				
CC1=CC(=O)CC(C)(C)C1 [Isophorone]	ONE PHASE				
COC(=O)c1ccccc1 [Methyl Benzoate]	2.84	6.66	0.076	0.155	
COC(C)(C)C [Methyl t-Butyl Ether]	ONE PHASE				
C=CC1CO1 (stereo not drawn) [epoxybutene, 3,4-epoxy-1-butene]					rate of epoxybutene hydrolysis relative to pH 7 ([2]; pH 3 versus pH 7): over 500 times; rate of epoxybutene hydrolysis relative to pH 7 ([2]; pH 11 versus pH 7): over 17 times; epoxybutene present in the feed reacted to form 1,2-diol and higher diol oligomers ([3]; Comparative Example 1: distillation from 45.4% water, 9.1% epoxybutene, 45.5% 1,2-diol): Approximately 66%; epoxybutene present in the feed reacted to form 1,2-diol and higher diol oligomers ([3]; Example 6: distillation from p-xylene extract): Less than 0.5%; epoxybutene present in the feed reacted to form 1,2-diol and higher diol oligomers ([3]; Example 7: distillation from isobutyl isobutyrate extract): Less than 0.4%; percent epoxybutene loss ([3]; Example 11: distillation of water-rich layer (96.92% water, 3.0% epoxybutene), feed pH 8 with K2CO3-H3PO4 buffer, 740 Torr): 1.5%
Cc1cccc(C)c1 [m-Xylene]	2.32	1479	0.002	0.005	
Cc1ccc(C)cc1 [p-Xylene]	4.34	368	0.002	0.005	

Continued, in another order:

Distribution Coefficients Epoxy-Butene [1]	Distribution Coefficients Solvent [1]	Distribution Coefficients Water [1]	Distribution Coefficients Diol [1]	Structure (SMILES)	also measured
ONE PHASE				CCC(O)CC [3-Pentanol]	
ONE PHASE				CCC(=O)CC [3-Pentanone]	
2.09	215	0.001	0.000	C1CCCCC1 [Cyclohexane]	
ONE PHASE				C[S+](C)[O-] [Dimethylsulfoxide]	
3.49	34.4	0.022	0.065	CC(C)COC(=O)C(C)C [Isobutyl isobutyrate]	
2.80	25.6	0.073	0.181	CC(=O)OCCC(C)C [Isopentyl Acetate]	
2.28	352	0.001	0.003	C=C(C)[C@H]1CC=C(C)CC1 [Limonene]	
ONE PHASE				CC(=O)CC(C)C [Methyl Isobutyl Ketone]	
ONE PHASE				CC1COC(=O)O1 (stereo not drawn) [Propylene Carbonate]	
1.06	1907	0.000	0.001	CCCCCCCCCC [n-Decane]	
1.93	851	0.001	0.001	CCCCCCC [n-Heptane]	
